≈ marks a conversion by molar mass, not a printed value. Like-named read-outs stand apart in the source and are kept apart here.
Tests used:
Format in all cases: cell-based
Streptococcus sobrinus [1] = assay: Susceptibility test to antibiotics, microbroth dilution method (MIC)
Method: (§1) The susceptibility test was carried out in accordance with microbroth dilution method.
(§2) The above-described antibiotics were dissolved in an appropriate solution, respectively, and the respective antibiotic solutions were divided into serial two-fold dilutions in a 96-well microtiter plates containing BHI broth. The bacteria were precultured in BHI broth, respectively, and inoculated into the wells containing the antibiotic solution to make a final concentration of the bacteria to be 1×10^4 cells/well, respectively. The plates were anaerobically incubated at a temperature of 37° C. for 48 hours. After mixing the broth in each well by the use of a pipette, the absorbance at 550 nm in each well was measured with a microplate reader (manufactured by Corona Electric Co., Ibaraki, Japan), to determine bacterial growth. The antibiotic concentration at which no bacterial growth was observed was defined as the minimal inhibitory concentration (MIC).

Streptococcus mutans [2] = assay: as above; conditions: for difference between Streptococcus mutans and Streptococcus sobrinus in their susceptibilities: in words, from MICs of Tables 2 and 3; for susceptibilities of Streptococcus mutans relative to those of Streptococcus sobrinus: from MICs of Table 2
Method: as §1, §2

Streptococcus sobrinus [3] = assay: Recovery from no-growth wells on MS agar: bactericidal or bacteriostatic
Method: (§3) Aliquots of 10 μl of the broth in the well, which no bacterial growth was observed were inoculated onto Mitis Salivarius Agar (MS medium; manufactured by Difco) plates, respectively, and anaerobically incubated at a temperature of 37° C. for 48 hours. The recovery of the inoculated bacteria was calculated to estimate which the mechanism of growth inhibition was bactericidal or bacteriostatic.

Streptococcus mutans [4] = assay: as above
Method: as §3

[5] = Streptococcus sobrinus, Streptococcus sobrinus 0MZ176 (serotype d), read-out: MIC
[6] = Streptococcus sobrinus, Streptococcus sobrinus B-13 (serotype d), read-out: MIC
[7] = Streptococcus mutans, Streptococcus mutans 10449 (serotype c), read-out: MIC
[8] = Streptococcus mutans, Streptococcus mutans JC2 (serotype c), read-out: MIC
[9] = Streptococcus mutans 10449 (serotype c)
[10] = Streptococcus sobrinus, Streptococcus sobrinus NIDR6715, serotype g, read-out: MIC
[11] = Streptococcus sobrinus, Streptococcus sobrinus NUM-Ssd1, serotype d, read-out: MIC
[12] = Streptococcus sobrinus, Streptococcus sobrinus NUM-Ssd2, serotype d, read-out: MIC
[13] = Streptococcus sobrinus, Streptococcus sobrinus OMZ65, serotype g, read-out: MIC
[14] = Streptococcus sobrinus, strains of Table 2, read-out: MIC to Streptococcus sobrinus
[15] = Streptococcus mutans, Streptococcus mutans Ingbritt, serotype c, read-out: MIC
[16] = Streptococcus mutans, Streptococcus mutans LM7, serotype e, read-out: MIC
[17] = Streptococcus mutans, Streptococcus mutans NUM-Sme1, serotype e, read-out: MIC
[18] = Streptococcus mutans, Streptococcus mutans NUM-Smf1, serotype f, read-out: MIC
[19] = Streptococcus mutans, Streptococcus mutans OMZ175, serotype f, read-out: MIC
[20] = Streptococcus mutans, Streptococcus mutans PS14, serotype c, read-out: MIC
[21] = Streptococcus mutans, strains of Table 2, read-out: MIC to Streptococcus mutans
[22] = Streptococcus mutans, strains of serotype f of Streptococcus mutans, summary of Table 3, read-out: MIC
[23] = Streptococcus mutans, strains of serotypes c and e of Streptococcus mutans, summary of Table 3, read-out: MIC
[24] = Streptococcus sobrinus strains of Table 3
[25] = Streptococcus sobrinus, strains of Table 2
[26] = Streptococcus mutans strains of Table 3
[27] = Streptococcus mutans, strains of Table 2

For `CO[C@@]1(NC(=O)Cc2cccs2)C(=O)N2C(C(=O)O)=C(COC(N)=O)CS[C@@H]21` [Cefoxitin], the “susceptibility of OMZ176 strain relative to the other bacterial strains” value (Streptococcus sobrinus [1]; Streptococcus sobrinus OMZ176 vs other strains of Table 2) was “approximately 4 times”, the MIC (Streptococcus sobrinus [1]; [5]) was 12.5 µg/mL (≈ 29.2 µM) and the MIC (Streptococcus sobrinus [1]; [6]) was 3.13 µg/mL (≈ 7.32 µM). The MIC (Streptococcus mutans [2]; [7]) was 3.13 µg/mL (≈ 7.32 µM), the MIC (Streptococcus mutans [2]; [8]) was 3.13 µg/mL (≈ 7.32 µM) and the “difference between Streptococcus mutans and Streptococcus sobrinus in their susceptibilities” value (Streptococcus mutans [2]) was “no significant difference”.
`CC1=C(C(=O)O)N2C(=O)[C@@H](NC(=O)[C@H](N)c3ccccc3)[C@H]2SC1` [Cephalexin] was tested, and the MIC (Streptococcus sobrinus [1]; [5]) was 1.25 µg/mL (≈ 3.6 µM), the MIC (Streptococcus sobrinus [1]; [6]) was 1.25 µg/mL (≈ 3.6 µM) and the MIC (Streptococcus mutans [2]; [7]) was 1.25 µg/mL (≈ 3.6 µM). For the same molecule, the MIC (Streptococcus mutans [2]; [8]) was 1.25 µg/mL (≈ 3.6 µM) and the “difference between Streptococcus mutans and Streptococcus sobrinus in their susceptibilities” value (Streptococcus mutans [2]) was “no significant difference”.
Molecule `O=C(Cc1cccs1)N[C@@H]1C(=O)N2C(C(=O)[O-])=C(C[n+]3ccccc3)CS[C@H]12` [Cephaloridine] has an MIC (Streptococcus sobrinus [1]; Streptococcus sobrinus) of 0.025 µg/mL (≈ 0.0602 µM), an MIC (Streptococcus sobrinus [1]; Streptococcus sobrinus B-13 (serotype d)) of 0.025 µg/mL (≈ 0.0602 µM) and an MIC (Streptococcus mutans [2]; Streptococcus mutans) of 0.025 µg/mL (≈ 0.0602 µM). The MIC (Streptococcus mutans [2]; [9]) was 0.025 µg/mL (≈ 0.0602 µM) and the “difference between Streptococcus mutans and Streptococcus sobrinus in their susceptibilities” value (Streptococcus mutans [2]) was “no significant difference”.
For `C[C@H]1[C@H](NC(=O)/C(=N\OC(C)(C)C(=O)O)c2csc(N)n2)C(=O)N1S(=O)(=O)O` [Aztreonam], the MIC (Streptococcus sobrinus [1]; [5]) was 2000 µg/mL (≈ 4590 µM), the MIC (Streptococcus sobrinus [1]; [6]) was 2000 µg/mL (≈ 4590 µM) and the MIC (Streptococcus sobrinus [1]; [10]) was 2000 µg/mL (≈ 4590 µM). It also gave an MIC (Streptococcus sobrinus [1]; [11]) of 2000 µg/mL (≈ 4590 µM), an MIC (Streptococcus sobrinus [1]; [12]) of 2000 µg/mL (≈ 4590 µM) and an MIC (Streptococcus sobrinus [1]; [13]) of 2000 µg/mL (≈ 4590 µM). For the same molecule, the MIC (Streptococcus sobrinus [1]; [14]) was 2000 µg/mL (≈ 4590 µM), the MIC (Streptococcus mutans [2]; [7]) was 125 µg/mL (≈ 287 µM) and the MIC (Streptococcus mutans [2]; [15]) was 125 µg/mL (≈ 287 µM). It also gave an MIC (Streptococcus mutans [2]; [8]) of 125 µg/mL (≈ 287 µM), an MIC (Streptococcus mutans [2]; [16]) of 125 µg/mL (≈ 287 µM) and an MIC (Streptococcus mutans [2]; [17]) of 125 µg/mL (≈ 287 µM). For the same molecule, the MIC (Streptococcus mutans [2]; [18]) was 250 µg/mL (≈ 574 µM), the MIC (Streptococcus mutans [2]; [19]) was 250 µg/mL (≈ 574 µM) and the MIC (Streptococcus mutans [2]; [20]) was 125 µg/mL (≈ 287 µM). For the same molecule, the MIC (Streptococcus mutans [2]; [21]) was 125 µg/mL (≈ 287 µM), the MIC (Streptococcus mutans [2]; [22]) was 250 µg/mL (≈ 574 µM) and the MIC (Streptococcus mutans [2]; [23]) was 125 µg/mL (≈ 287 µM). For the same molecule, the “susceptibilities of Streptococcus mutans relative to those of Streptococcus sobrinus” value (Streptococcus mutans [2]) was 16 fold, the “mode of action (bactericidal or bacteriostatic)” value (from here on “mode of action”) (Streptococcus sobrinus [3]; [24]) was “bactericidal” and the “mode of action” value (Streptococcus sobrinus [3]; [25]) was “bactericidal”. The “mode of action” value (Streptococcus mutans [4]; [26]) was “bactericidal” and the “mode of action” value (Streptococcus mutans [4]; [27]) was “bactericidal”.
With `CC1(C)S[C@@H]2[C@H](NC(=O)Cc3ccccc3)C(=O)N2[C@H]1C(=O)O` [Benzylpenicillin] the MIC (Streptococcus sobrinus [1]; [5]) was 0.05 µg/mL (≈ 0.15 µM), the MIC (Streptococcus sobrinus [1]; [6]) was 0.05 µg/mL (≈ 0.15 µM) and the “susceptibilities of Streptococcus sobrinus relative to those of Streptococcus mutans” value (Streptococcus sobrinus [1]; from MICs of Table 2) was “twice as high”. For the same molecule, the MIC (Streptococcus mutans [2]; [7]) was 0.1 µg/mL (≈ 0.299 µM) and the MIC (Streptococcus mutans [2]; [8]) was 0.1 µg/mL (≈ 0.299 µM).
With `Cc1nnc(SCC2=C(C(=O)O)N3C(=O)[C@@H](NC(=O)Cn4cnnn4)[C@H]3SC2)s1` [Cefazoline] the MIC (Streptococcus sobrinus [1]; [5]) was 0.25 µg/mL (≈ 0.55 µM), the MIC (Streptococcus sobrinus [1]; [6]) was 0.5 µg/mL (≈ 1.1 µM) and the MIC (Streptococcus mutans [2]; [7]) was 0.25 µg/mL (≈ 0.55 µM). For the same molecule, the MIC (Streptococcus mutans [2]; [8]) was 0.25 µg/mL (≈ 0.55 µM) and the “difference between Streptococcus mutans and Streptococcus sobrinus in their susceptibilities” value (Streptococcus mutans [2]) was “no significant difference”.
For `Cc1onc(-c2ccccc2Cl)c1C(=O)N[C@@H]1C(=O)N2[C@@H]1SC(C)(C)[C@@H]2C(=O)O` [Cloxacillin], the MIC (Streptococcus sobrinus [1]; [5]) was 1.25 µg/mL (≈ 2.87 µM), the MIC (Streptococcus sobrinus [1]; [6]) was 1.25 µg/mL (≈ 2.87 µM) and the MIC (Streptococcus mutans [2]; [7]) was 0.63 µg/mL (≈ 1.45 µM). The MIC (Streptococcus mutans [2]; [8]) was 0.63 µg/mL (≈ 1.45 µM) and the “susceptibilities of Streptococcus mutans relative to those of Streptococcus sobrinus” value (Streptococcus mutans [2]) was “twice as high”.
Work on `NC(=O)OC[C@@H]1[C@H](NC(=O)/C(=N\OCC(=O)O)c2csc(N)n2)C(=O)N1S(=O)(=O)O` [Carumonam] yielded an MIC (Streptococcus sobrinus [1]; [5]) of 2000 µg/mL (≈ 4290 µM), an MIC (Streptococcus sobrinus [1]; [6]) of 2000 µg/mL (≈ 4290 µM) and an MIC (Streptococcus sobrinus [1]; [10]) of 2000 µg/mL (≈ 4290 µM). The MIC (Streptococcus sobrinus [1]; [11]) was 2000 µg/mL (≈ 4290 µM), the MIC (Streptococcus sobrinus [1]; [12]) was 2000 µg/mL (≈ 4290 µM) and the MIC (Streptococcus sobrinus [1]; [13]) was 1000 µg/mL (≈ 2140 µM). For the same molecule, the MIC (Streptococcus sobrinus [1]; [14]) was 2000 µg/mL (≈ 4290 µM), the MIC (Streptococcus mutans [2]; [7]) was 125 µg/mL (≈ 268 µM) and the MIC (Streptococcus mutans [2]; [15]) was 125 µg/mL (≈ 268 µM). For the same molecule, the MIC (Streptococcus mutans [2]; [8]) was 125 µg/mL (≈ 268 µM), the MIC (Streptococcus mutans [2]; [16]) was 125 µg/mL (≈ 268 µM) and the MIC (Streptococcus mutans [2]; [17]) was 125 µg/mL (≈ 268 µM). The MIC (Streptococcus mutans [2]; [18]) was 250 µg/mL (≈ 536 µM), the MIC (Streptococcus mutans [2]; [19]) was 250 µg/mL (≈ 536 µM) and the MIC (Streptococcus mutans [2]; [20]) was 125 µg/mL (≈ 268 µM). For the same molecule, the MIC (Streptococcus mutans [2]; [21]) was 125 µg/mL (≈ 268 µM), the MIC (Streptococcus mutans [2]; [22]) was 250 µg/mL (≈ 536 µM) and the MIC (Streptococcus mutans [2]; [23]) was 125 µg/mL (≈ 268 µM). The “susceptibilities of Streptococcus mutans relative to those of Streptococcus sobrinus” value (Streptococcus mutans [2]) was 16 fold, the “mode of action” value (Streptococcus sobrinus [3]; [24]) was “bactericidal” and the “mode of action” value (Streptococcus sobrinus [3]; [25]) was “bactericidal”. The “mode of action” value (Streptococcus mutans [4]; [26]) was “bactericidal” and the “mode of action” value (Streptococcus mutans [4]; [27]) was “bactericidal”.
Work on `C[C@@H](O)[C@H]1C(=O)N2C(C(=O)O)=C(SCCN=CN)C[C@H]12` [Imipenem] yielded an MIC (Streptococcus sobrinus [1]; [5]) of 0.031 µg/mL (≈ 0.104 µM), an MIC (Streptococcus sobrinus [1]; [6]) of 0.016 µg/mL (≈ 0.0534 µM) and an MIC (Streptococcus mutans [2]; Streptococcus mutans) of 0.125 µg/mL (≈ 0.418 µM). It also gave an MIC (Streptococcus mutans [2]; [9]) of 0.125 µg/mL (≈ 0.418 µM).
